Reference: patent publication US20050119324A1, “Methods of treating atherosclerosis using NF-kB inhibitors” (Wyeth, priority 2003, published 2005)

Tests used:
[1] = system: apolipoprotein E-deficient C57/B1J (apo E KO) mice; assay: Aortic atherosclerosis quantification (Oil Red O, en face, aortic arch) in ovariectomized apoE KO mice on a high fat diet; format: in vivo; conditions: atherogenic diet 6 weeks, oral dosing in feed, EE 12 μg/kg/d, Examples 3 or 5 at 10 or 25 mg/kg/d, N=12
Protocol: All animal procedures were performed under strict compliance to IACUC guidelines. Four to six-week old female apolipoprotein E-deficient C57/B1J (apo E KO) mice were ovariectomized by the vendor (Taconic) and delivered to Wyeth within 2 days of surgery. The animals were housed in shoe-box cages and were allowed ad lib food and water. After 3 days acclimation, the animals were randomized by weight into 8 groups (N=12 mice per group). The animals were dosed in the feed with the indicated compounds during the entire course of the study. Dosing at the indicated levels was achieved by blending the compounds with a sucrose vehicle (30 g per 2 kg feed) prior to mixing into the feed. Ethinyl estradiol was used as a positive reference compound and was dosed at 12 μg/kg/d. […] The quantity of compound added to the feed was based on the food consumption rate and the body weights of the animals, which was determined every week. […]
Aortic Atherosclerosis Quantification-The mice were euthanized by anesthesia overdose and the vascular tree was perfused first with 2 ml phosphate buffered saline (pH 7.4), then with 2 ml formalin. For quantification of aortic lesions, aortas were carefully isolated and placed in formalin fixative for 48-72 hours before handling. […] The lesions were quantified en face after staining along the aortic arch using the Image-Pro Plus, Media Cybernetics software. […]

[2] = Lipoprotein determinations (total cholesterol, VLDL, HDL by FPLC) in ovariectomized apoE KO mice on a high fat diet; format: in vivo; conditions: atherogenic diet 6 weeks, oral dosing in feed
Protocol: All animal procedures were performed under strict compliance to IACUC guidelines. Four to six-week old female apolipoprotein E-deficient C57/B1J (apo E KO) mice were ovariectomized by the vendor (Taconic) and delivered to Wyeth within 2 days of surgery. The animals were housed in shoe-box cages and were allowed ad lib food and water. After 3 days acclimation, the animals were randomized by weight into 8 groups (N=12 mice per group). The animals were dosed in the feed with the indicated compounds during the entire course of the study. Dosing at the indicated levels was achieved by blending the compounds with a sucrose vehicle (30 g per 2 kg feed) prior to mixing into the feed. Ethinyl estradiol was used as a positive reference compound and was dosed at 12 μg/kg/d. Other groups of animals were dosed with the compounds of Example 3 or Example 5 at either 10 or 25 mg/kg/d. Control animals received vehicle (sucrose) alone in the feed. The quantity of compound added to the feed was based on the food consumption rate and the body weights of the animals, which was determined every week. The feeders employed prevented any spillage, so that the food consumption rate was accurate. The animals were fed a Casein-based rodent chow meal (Purina #5K96M) for the first week of the study. The animals were then challenged with a casein-based high fat (HF) diet for week 2 to week 7 of the study. The HF diet (#591-A) was prepared by Purina and contained 1.5% cholesterol, 20% fat as cocoa butter and contained no cholic acid. At the end of the study period, the animals were euthanized and plasma samples obtained. The aortas were perfused via the left ventricle first with buffered saline and then with neutral buffered 10% formalin solution.
Lipoprotein Determinations—Total cholesterol and triglycerides were determined using enzymatic methods with commercially available kits from Boehringer Mannheim and Wako Biochemicals, respectively, and analyzed with the Boehringer Mannheim Hitachii 911 Analyzer. Separation and quantitation of plasma lipoproteins were performed using FPLC size fractionation. Briefly, 50-100 μl serum was filtered and injected into Superose 12 and Superose 6 columns connected in series and eluted at a constant flow rate using 0.15 M NaCl. Areas of each curve representing VLDL, LDL and HDL were integrated using Waters Millennium™ software, and each lipoprotein fraction was quantified by multiplying the Total Cholesterol value by the relative percent area of each respective chromatogram peak.

Compound | extent of aortic fatty streak involvement [1] | VLDL-C (FIG. 2) [2] | serum HDL-C (FIG. 2) [2] | serum total cholesterol (FIG. 2) [2] | melting point
CC1c2cc(F)ccc2-c2ccccc2N1S(=O)(=O)c1ccc(O)cc1 (stereo not shown) [Example 3, 4-[(8-Fluoro-6-methylphenanthridin-5(6H)-yl)sulfonyl]phenol] | significant decrease | increase | significantly lower | no effect | 188 °C
COc1cc(OC)cc(N2CCN(C(=O)[C@](C)(C#N)[C@H](c3ccccc3OC)c3cccc4ccccc34)CC2)c1 [Example 4, (S)-3-[4-(3,5-dimethoxyphenyl)piperazin-1-yl]-2-[(S)-(2-methoxyphenyl)(1-naphthyl)methyl]-2-methyl-3-oxopropanenitrile] | – | – | – | – | 186 to 188 °C
COc1ccccc1[C@H](c1cccc2ccccc12)[C@@](C)(C#N)C(=O)N1CCC(c2cccc(C(F)(F)F)c2)CC1 [Example 5, (S,S)-3-(2-methoxyphenyl)-2-methyl-3-(1-naphthyl)-2-({4-[3-(trifluoromethyl)phenyl]piperidin-1-yl}carbonyl)propanenitrile] | significant decrease | increase | significantly lower | no effect | –
